For assay [1], the target named is T1, 5-HT1A receptor (CHO/5-HT1A cells) (Homo sapiens, UniProt P08908).
T1 construct: expressed in transfected cells; host or cells: CHO/5-HT1A cells
T1 sequence (P08908 1-422): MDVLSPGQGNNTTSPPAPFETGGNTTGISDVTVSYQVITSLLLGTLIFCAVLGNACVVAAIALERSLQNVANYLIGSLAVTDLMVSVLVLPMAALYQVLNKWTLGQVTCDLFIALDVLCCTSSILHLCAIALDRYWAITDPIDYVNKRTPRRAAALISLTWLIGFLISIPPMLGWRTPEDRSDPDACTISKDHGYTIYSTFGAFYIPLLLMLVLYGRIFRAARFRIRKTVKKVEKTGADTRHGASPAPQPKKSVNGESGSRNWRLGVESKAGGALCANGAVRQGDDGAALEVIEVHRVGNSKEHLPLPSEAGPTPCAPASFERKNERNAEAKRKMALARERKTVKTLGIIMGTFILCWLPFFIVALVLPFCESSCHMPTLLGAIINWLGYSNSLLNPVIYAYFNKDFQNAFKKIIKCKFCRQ
As to the kind of experiment: 5-HT1A functional assay (cAMP). It is filed as cell-based. The following applies: 10 μM compound, % inhibition of the cAMP accumulation induced by 10 μM FSK, read-out: 5-HT1A cAMP % Inhibition (agonist activity). On the procedure: 5-HT1A Functional Assay (cAMP)
CHO/5-HT1A cells were random seeded at a density of about 200,000/well in 24 well plates the day prior to the experiment. On the day of the experiment, cells were pretreated for 15 minutes at 37° C. with 500 μM isobutylmethylxantine (IBMX) dissolved in culture medium without serum. Wells were then divided in different groups in duplicate as follows: control, 10 μM FSK, 10 μM FSK+1 μM 5-HT as positive standard and 10 μM FSK+10 μM of the different compound under evaluation. Sample solutions were added and incubated for additional 15 minutes at 37° C. After incubation, medium was aspirated and the reaction stopped by adding 200 μl of lysis buffer. Plates were shaken for 5 minutes, then the lysate was removed and samples were stored at 4° C. until the day of the assay. For the cAMP evaluation, samples were properly diluted and the cAMP content was measured by an enzyme immunoassay system.
Results are expressed as % inhibition of the cAMP accumulation induced by 10 μM FSK.
Background: Changes in cAMP serve as a functional read-out for many G protein-coupled receptors.

Assay [2] deals with T2, 5-HT1A human receptors (Homo sapiens, UniProt P08908).
T2 construct: expressed in transfected cells; host or cells: CHO cells
T2 sequence (P08908 1-422): T1 sequence (P08908 1-422)
As to the kind of experiment: 5-HT1A radioligand receptor binding assay ([3H]-8-OH-DPAT). To be noted: for inhibition at 0.1 µM: compound 10^−7 M, singlicate, [3H]-8-OH-DPAT 0.6-0.7 nM. On the procedure:
5-HT1A, Radioligand Receptor Binding Assay
Membranes from CHO cells, expressing 5-HT1A human receptors were suspended in incubation buffer.
Binding assays were performed in MultiProbe 204 pipetting system (Packard), according to a predetermined mapping, consistent with the software Screen. The compounds were tested in singlicate at one concentration (10^−7 M) in a total volume of 1000 μl. 980 μl of diluted membranes, 10 μl DMSO or unlabelled ligand, and 10 μl of [^3H]-8-OH-DPAT (0.6-0.7 nM) were incubated for 60 minutes at 27° C. The reaction was stopped by rapid filtration through Tomtec Cell Harvester (48 wells) using Filtermat B (presoaked in 0.1% PEI) filters. Filters were washed with ice-cold 50 mM Tris-HCl (pH 7.4) buffer (9×700 μl), dried, covered with MeltiLex B/HS scintillator sheets (Wallac) and heated at 80° C. to 90° C. for about 10 minutes, transferred into plastic sample bags (Wallac), sealed and put into 1024 Beta Plate scintillation counter (Wallac). Non-specific binding was determined in the presence of 5-HT (10^−5 M).
The specific radioligand binding to the receptor was defined by the difference between total binding and non-specific binding, determined in the presence of an excess of unlabelled ligand. Results were expressed as percentage of control specific binding obtained in the presence of the compounds. The affinity values (IC50) for the compounds were obtained by a nonlinear least squares regression analysis on the basis of a one binding site model.

Assay [3] addresses T3, D4 human receptors (Homo sapiens, UniProt P21917).
T3 construct: expressed in transfected cells; host or cells: CHO cells
T3 sequence (P21917 1-419): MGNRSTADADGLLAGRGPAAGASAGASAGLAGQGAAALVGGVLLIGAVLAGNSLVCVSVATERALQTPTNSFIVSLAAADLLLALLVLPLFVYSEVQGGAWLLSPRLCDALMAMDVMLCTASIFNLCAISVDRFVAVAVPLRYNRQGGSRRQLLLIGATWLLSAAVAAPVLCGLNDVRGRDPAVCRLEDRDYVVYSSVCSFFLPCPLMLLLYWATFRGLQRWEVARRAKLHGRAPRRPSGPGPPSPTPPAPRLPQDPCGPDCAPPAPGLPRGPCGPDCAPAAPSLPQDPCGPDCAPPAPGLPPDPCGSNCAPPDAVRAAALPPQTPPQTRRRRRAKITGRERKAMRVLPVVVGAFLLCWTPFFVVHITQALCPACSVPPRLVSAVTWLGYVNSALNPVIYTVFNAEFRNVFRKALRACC
As to the kind of experiment: D4 radioligand receptor binding assay ([3H] YM-09151-2). The following applies: compound 10^−7 M, singlicate; membranes from CHO cells; [3H] YM-09151-2 0.15-0.25 nM. On the procedure:
D4 Radioligand Receptor Binding Assay
Membranes from CHO cells, expressing D4 human receptors were suspended in incubation buffer.
Binding assays were performed in MultiProbe 204 pipetting system (Packard), according to a predetermined mapping, consistent with the software Screen. The compounds were tested in singlicate at one concentration (10^−7 M) in a total volume of 1000 μl (980 μl of diluted membranes, 10 μl DMSO or unlabelled ligand, and 10 μl of [^3H] YM-09151-2 (0.15-0.25 nM). After incubation for 120 minutes at 27° C., the reaction was stopped by rapid filtration through Tomtec Cell Harvester (48 wells) using Filtermat B (presoaked in 0.1% PEI) filters. Filters were washed with ice-cold 50 mM Tris-HCl (pH 7.4) buffer (9×700 μl), dried, covered with MeltiLex B/HS (Wallac) scintillator sheets and heated in oven at 80° C.-90° C. for about 10 minutes, transferred into plastic sample bags (Wallac), sealed and put into 1024 Beta Plate scintillation counter (Wallac). Non-specific binding was determined in the presence of clozapine dissolved in DMSO to a final concentration of 10^−5 M.
The specific radioligand binding to the receptor was defined by the difference between total binding and non-specific binding, determined in the presence of an excess of unlabelled ligand. Results were expressed as percentage of control specific binding obtained in the presence of the compounds.

[4] abbreviates: membranes from CHO cells, [3H]-8-OH-DPAT, one binding site model, read-out: 5-HT1A Receptor Binding IC50.

Like-named read-outs stand apart in the source and are kept apart here.

A word on the inhibition: it is the drop in the measured response relative to a control, in per cent. The term IC50 denotes the concentration that gives 50% inhibition. Turning to `O=c1[nH]c2ccccc2n1C/C=C\CN1CCN(c2cccc(C(F)(F)F)c2)CC1` [Compound 26], the inhibition at 10 µM in assay [1] stood at 68%. The IC50 in assay [2] was 6.6 nM. Also, the inhibition at 0.1 µM turned out to be 94% in assay [2] (membranes from CHO cells) and 49% in assay [3].
As to `O=c1n(C/C=C/CN2CCN(c3ncccn3)CC2)c2ccccc2n1CC1CCCCC1` [Compound 125], in assay [1], the inhibition at 10 µM came out at 49%. The inhibition at 0.1 µM in assay [2] (membranes from CHO cells) worked out at 90%; in assay [3] it was 51%. Moreover, the half-maximal inhibitory concentration (IC50) in assay [2] (setting [4]) was 3.3 nM.
Taken in the same sequence, the figures for `Cn1c(=O)n(C/C=C\CN2CCN(c3cccc(C(F)(F)F)c3)CC2)c2ccccc21` [Compound 43] were 73%, 94%, 54% and 1.2 nM.
With `Cn1c(=O)n(C/C=C\CN2CC=C(c3ccccc3)CC2)c2ccccc21` [Compound 44], the inhibition at 10 µM in assay [1] came out at 47%. In assay [2], this compound had an IC50 of 2.5 nM. The inhibition at 0.1 µM was determined as 94% in assay [2] (membranes from CHO cells) and 69% in assay [3].
With `CCCn1c(=O)n(C/C=C/CN2CCN(c3cccc(C(F)(F)F)c3)CC2)c2ccccc21` [Compound 111], in assay [1], the inhibition at 10 µM was 68%. In addition, the inhibition at 0.1 µM amounted to 94% in assay [2] (membranes from CHO cells) and 32% in assay [3]. The half-inhibitory concentration (IC50) in assay [2] (setting [4]) came out at 4.4 nM.
As to `O=c1[nH]c2ccccc2n1C/C=C\CN1CC=C(c2ccccc2)CC1` [Compound 27], the inhibition at 10 µM in assay [1] stood at 44%. The compound further yielded a half-inhibitory concentration (IC50) in assay [2] of 6.4 nM. Further, the inhibition at 0.1 µM came to 87% in assay [2] (membranes from CHO cells) and 70% in assay [3].
